Literature values in paper PMC12697872, “Rethinking the AI Paradigm for Solubility Prediction of Drug‑Like Compounds with Dual‐Perspective Modeling and Experimental Validation” (Advanced Science, 2025).

Settings: discarded ambiguous entries of DrugBank database; ref DrugBank database (version 5.1.12) 24; cited from earlier work

| SMILES | Experimental solubility (descriptive) |
| --- | --- |
| CCC(NC(C)C)C(O)c1ccc(O)c(O)c1 (centres unmarked) [79490-84-9] | Appreciable |

Same assay, conditions: experimental aqueous solubility as logS, sheet "DrugBank" of Supplement 2; ref DrugBank; cited from earlier work

| SMILES | ex_logS |
| --- | --- |
| CN1c2c(nc(N)[nH]c2=O)NC[C@@H]1CNc1ccc(C(=O)N[C@@H](CCC(=O)O)C(=O)O)cc1 [Levomefolic acid] | -3.185 |
| CC(C)[C@H](N)C(=O)O [Valine] | -0.3016 |
| NS(=O)(=O)c1cc2c(cc1Cl)N=C(CSCc1ccccc1)NS2(=O)=O [Benzthiazide] | -4.686 |
| CSCC[C@H](N)C(=O)O [Methionine] | -0.421 |
| CNCCCN1c2ccccc2CCc2ccccc21 [Desipramine] | -3.658 |
| CC1(C)O[C@@H]2[C@@H](CO[C@@]3(COS(N)(=O)=O)OC(C)(C)O[C@@H]23)O1 [Topiramate] | -1.539 |
| Cc1cccc(C)c1NC(=O)C1CCCCN1C (centres unmarked) [Mepivacaine] | -1.991 |
| CCCCC1(CC)C(=O)NC(=O)NC1=O [Butobarbital] | -1.638 |
| Cl[C@H]1[C@H](Cl)[C@@H](Cl)[C@@H](Cl)[C@H](Cl)[C@H]1Cl [Lindane] | -4.6 |
| Nc1ccc(S(=O)(=O)Nc2ncccn2)cc1 [Sulfadiazine] | -3.512 |
| CN1CCCN=C1COC(=O)C(O)(c1ccccc1)C1CCCCC1 (centres unmarked) [Oxyphencyclimine] | -4.717 |
| CC(C(=O)O)C(=O)O [Methylmalonic Acid] | 0.7597 |
| CP(=O)(O)C1=CCNCC1 [TPMPA] | -1 |
| OC(Cn1cncn1)(Cn1cncn1)c1ccc(F)cc1F [fluconazole] | -1.8 |
| CC(=O)[C@@]1(C)CC[C@H]2[C@@H]3C=C(C)C4=CC(=O)CC[C@]4(C)[C@H]3CC[C@@]21C [Medrogestone] | -5.277 |
| CC(=O)Oc1c(C)cc(OCC(O)CNC(C)C)c(C)c1C (centres unmarked) [Metipranolol] | -2.72 |
| CC(=O)Nc1ccc(O)cc1 [acetaminophen] | -1.02 |
| CCOC(=O)c1ccc(N)cc1 [benzocaine] | -2.32 |
| CCCCC[C@H](O)/C=C/[C@H]1[C@H](O)CC(=O)[C@@H]1C/C=C\CCCC(=O)O [Dinoprostone] | -3.783 |
| NC(=O)c1cccnc1 [Nicotinamide] | 0.6122 |
| O=C(O)c1cc(-c2ccc(F)cc2F)ccc1O [Diflunisal] | -4.237 |
| S=c1[nH]cnc2nc[nH]c12 [Mercaptopurine] | -3.089 |
| CC(=O)[C@H]1CC[C@H]2[C@@H]3CCC4=CC(=O)CC[C@]4(C)[C@H]3CC[C@]12C [progesterone] | -4.42 |
| C[C@]1(O)CC[C@H]2[C@@H]3CCC4=CC(=O)CC[C@]4(C)[C@@]3(F)[C@@H](O)C[C@@]21C [Fluoxymesterone] | -3.698 |

Same assay, conditions: experimental aqueous solubility as logS, sheet "DrugBank"; ref DrugBank database; cited from earlier work

| SMILES | ex_logS |
| --- | --- |
| CC1=C(C(=O)O)N2C(=O)[C@@H](NC(=O)[C@H](N)C3=CCC=CC3)[C@H]2SC1 [Cefradine] | -1.215 |
| C[C@@H](CO)NC(=O)[C@@H]1C=C2c3cccc4[nH]cc(c34)C[C@H]2N(C)C1 [Ergometrine] | -2.084 |
| CC(=O)OCC(=O)[C@@]12N=C(C)O[C@@H]1C[C@H]1[C@@H]3CCC4=CC(=O)C=C[C@]4(C)[C@H]3[C@@H](O)C[C@@]12C [Deflazacort] | -3.612 |
| CC[C@@]1(O)C(=O)OCc2c1cc1n(c2=O)Cc2cc3c(CN(C)C)c(O)ccc3nc2-1 [Topotecan] | -2.625 |
| CN1CCN(C2=Nc3cc(Cl)ccc3Nc3ccccc32)CC1 [Clozapine] | -4.442 |
| CC[C@H]1OC(=O)[C@H](C)[C@@H](O[C@H]2C[C@@](C)(OC)[C@@H](O)[C@H](C)O2)[C@H](C)[C@@H](O[C@@H]2O[C@H](C)C[C@H](N(C)C)[C@H]2O)[C@](C)(OC)C[C@@H](C)C(=O)[C@H](C)[C@@H](O)[C@]1(C)O [Clarithromycin] | -6.355 |
| O=c1[nH]c2ccccc2n1C1CCN(CCCC(c2ccc(F)cc2)c2ccc(F)cc2)CC1 [Pimozide] | -4.664 |
| O=C(O)c1ccc2ccccc2n1 [Quinaldic Acid] | -1.092 |
| CCc1nc(N)nc(N)c1-c1ccc(Cl)cc1 [Pyrimethamine] | -3.313 |
| CC1=C(/C=C/C(C)=C/C=C/C(C)=C/CO)C(C)(C)CCC1 [Vitamin A] | -5.63 |
| COC(=O)C1=C(C)NC(C)=C(C(=O)OCCN(C)Cc2ccccc2)C1c1cccc([N+](=O)[O-])c1 (centres unmarked) [Nicardipine] | -5.338 |
| CN1CC[C@]23c4c5ccc(O)c4O[C@H]2C(=O)CC[C@@]3(O)[C@H]1C5 [Oxymorphone] | -1.099 |
| CC/C(=C(/CC)c1ccc(O)cc1)c1ccc(O)cc1 [Diethylstilbestrol] | -4.35 |
| CN(C)CCc1c[nH]c2ccc(C[C@H]3COC(=O)N3)cc12 [Zolmitriptan] | -2.344 |
| O=C(CCCN1CC=C(n2c(=O)[nH]c3ccccc32)CC1)c1ccc(F)cc1 [Droperidol] | -4.955 |
| NNCCc1ccccc1 [Phenelzine] | -0.6703 |
| O=c1[nH]c(=O)n([C@H]2C[C@H](O)[C@@H](CO)O2)cc1F [Floxuridine] | -1.316 |

| SMILES | ex_logS |
| --- | --- |
| OC[C@H]1O[C@@H](n2cnc3c2NC=NC[C@H]3O)C[C@@H]1O [Pentostatin] | -0.9514 |
| CN1CCC(CN2c3ccccc3Sc3ccccc32)C1 (centres unmarked) [Methdilazine] | -5.93 |
| Nc1c2c(nc3ccccc13)CCCC2 [Tacrine] | -2.961 |
| Cc1onc(-c2c(Cl)cccc2Cl)c1C(=O)N[C@@H]1C(=O)N2[C@@H]1SC(C)(C)[C@@H]2C(=O)O [Dicloxacillin] | -5.112 |
| CCOc1ccc(Nc2ccc(/C(=C3C=C/C(=[N+](/CC)Cc4cccc(S(=O)(=O)[O-])c4)C=C/3C)c3ccc(N(CC)Cc4cccc(S(=O)(=O)O)c4)cc3C)cc2)cc1 [Brilliant blue G] | -2.931 |
| CC1(C)S[C@@H]2[C@H](/N=C/N3CCCCCC3)C(=O)N2[C@H]1C(=O)O [Amdinocillin] | -4.5 |
| OC[C@H]1O[C@@H](n2cnc3cncnc32)[C@H](O)[C@@H]1O [Nebularine] | -0.4018 |
| Cn1c(=O)c2c(ncn2CC(O)CO)n(C)c1=O (centres unmarked) [Dyphylline] | 0.1172 |
| CCCCC[C@H](O)/C=C/[C@H]1[C@H](O)CC(=O)[C@@H]1CCCCCCC(=O)O [Alprostadil] | -4.123 |
| CN(C)CCCN1c2ccccc2CCc2ccccc21 [Imipramine] | -4.188 |
| Nc1nc(F)nc2c1ncn2[C@@H]1O[C@H](CO)[C@@H](O)[C@@H]1O [Fludarabine] | -1.907 |
| C=CC1=C(C)c2cc3[nH]c(cc4nc(cc5[nH]c(cc1n2)c(C)c5CCC(=O)O)C(CCC(=O)O)=C4C)c(C)c3C=C [Protoporphyrin] | -3.522 |
| N[C@@H]1[C@H]2CN(c3nc4c(cc3F)c(=O)c(C(=O)O)cn4-c3ccc(F)cc3F)C[C@@H]12 [Trovafloxacin] | -4.53 |
| C#C[C@]1(O)CC[C@H]2[C@@H]3CCc4cc(O)ccc4[C@H]3CC[C@@]21C [Ethinylestradiol] | -4.4188 |
| CCC(c1ccccc1)c1c(O)c2ccccc2oc1=O (centres unmarked) [Phenprocoumon] | -4.337 |
| CCCSc1nc(N[C@@H]2C[C@H]2c2ccc(F)c(F)c2)c2nnn([C@@H]3C[C@H](OCCO)[C@@H](O)[C@H]3O)c2n1 [Ticagrelor] | -4.718 |
| COC(=O)OCOc1c2n(ccc1=O)N([C@@H]1c3ccccc3SCc3c1ccc(F)c3F)[C@@H]1COCCN1C2=O [Baloxavir marboxil] | -4.581 |
